Test results published in paper PMC4610172, “5-Arylaminouracil Derivatives as Potential Dual-Action Agents” (Acta Naturae, 2015).

Key:
[1] = system: Mycobacterium tuberculosis; parameters: method as in PMID 26061192; conditions: cited from earlier work
MT-4 cell line = assay: Cytotoxicity in vitro in MT-4 cells (propidium iodide uptake, automatic cell counter); type: cell-based; conditions: highest concentration tested
Procedure: We tested the compounds for potential cytotoxicity in the MT-4 cell line using an automatic cell counter (ChemoMetec). The number of live and dead cells was counted in the control cultures, and the cultures were treated with compound (6), (7), or (19). Compounds (6) and (7) were tested at concentrations of 0.136–33 μM (0.035–9 μg/mL), and compound (19) was tested at concentrations of 0.272–66 μM (0.119–28 μg/mL).
We discriminated live from dead cells by evaluating propidium iodide uptake according to the manufacturer’s instructions. We collected and analyzed data using the Nucleoview software (version 1.0,ChemoMetec).

human tonsillar tissue = assay: Toxicity ex vivo in human tonsillar tissue (flow cytometry of cell phenotypes); type: cell-based; conditions: 12 days culture
Procedure: The cytotoxicity of compounds (6), (7), and (19) was determined in human tonsillar tissues. A total of 27 tissue blocks were incubated with compound (19) (20 μg/mL) or with compound (6) or (7) ( 5 μg/mL) for each experimental point. Tissue blocks were cultured for 12 days. Then, the cells were isolated from the control and treated and stained with combinations of fluorescence- labeled antibodies against CD3-QD605, CD4- QD655, CD8-QD705, CD25-APC, CD38-PE, HLA-DRAPC- Cy7, CXCR4-Brilliant violet 421, CCR5-PR-Cy5 CD45RA-FITC, and CCR7-PE-Cy7 (Caltag Laboratories; Biolegend). We determined the numbers of cells of different phenotypes in isolated suspensions using flow cytometry as previously described. The volume of an analyzed suspension was controlled by means of Trucount beads (Becton Dickinson); the number of counted cells was normalized to the weight of the tissue fragments used for cell isolation.

[2] = molecular target: T1, HIV-1 reverse transcriptase (p66/p51 heterodimer) (Human immunodeficiency virus type 1 group M subtype B, UniProt P04585); assay: Inhibition of recombinant HIV-1 reverse transcriptase (Dixon's method, noncompetitive); type: biochemical; conditions: Dixon's method for noncompetitive inhibitors; read-out: Ki (inhibition constant)
T1 construct: recombinant HIV-1 reverse transcriptase (p66/p51 heterodimer); made in house
Procedure: Isolation of recombinant HIV-1 reverse transcriptase (p66/p51 heterodimer) and determination of its activity were performed as described earlier. The inhibition constant (Ki), calculated according to Dixon’s method for noncompetitive inhibitors, was used as a quantitative measure of the inhibitory activity of the compounds. Nevirapine, a first-generation HIV NNRTI, was used as a control.

| SMILES | Concentration of total inhibition of mycobacterium growth [1] [µg/mL] | Maximum concentration at which neither cytotoxic nor cytostatic effect was observed (MT-4 cell line) [µM] | Ki [2] [µM] | also measured |
| --- | --- | --- | --- | --- |
| CCCCOc1ccc(Nc2c[nH]c(=O)[nH]c2=O)cc1 [Compound 7] | 5 to 40 | ≥ 33 |  | Cytotoxicity on different cell types in the tissue (T, B, CD4+, CD8+ and CD4+ subgroups) (human tonsillar tissue; 5 μg/mL): lack of significant death rates |
| CCCCOc1ccc(Nc2cn(C3C=CC(O)C3)c(=O)n(C3C=CC(O)C3)c2=O)cc1 (stereo not drawn) [Compound 19] | 5 to 40 | ≥ 66 |  | Cytotoxicity on different cell types in the tissue (T, B, CD4+, CD8+ and CD4+ subgroups) (human tonsillar tissue; 20 μg/mL): lack of significant death rates |
| Cc1ccc(Nc2cn(C3C=CC(O)C3)c(=O)n(Cc3ccccc3)c2=O)cc1 (stereo not drawn) [Compound 22, 1-(4’-Hydroxy-2’-cyclopenten-1’-yl)-3-benzyl-5-(p-methylphenylamino) uracil] |  |  | 60 |  |
| CCCCc1ccc(Nc2n[nH]c(=O)[nH]c2=O)cc1 [Compound 10] | 5 to 40 |  |  |  |
| Cc1ccc(Nc2c[nH]c(=O)[nH]c2=O)cc1 [Compound 3] | 5 to 40 |  |  |  |
| CCCCc1ccc(Nc2c[nH]c(=O)[nH]c2=O)cc1 [Compound 6] | 5 to 40 | ≥ 33 |  | Cytotoxicity on different cell types in the tissue (T, B, CD4+, CD8+ and CD4+ subgroups) (human tonsillar tissue; 5 μg/mL): lack of significant death rates |
| Cc1cccc(Nc2c[nH]c(=O)[nH]c2=O)c1 [Compound 2] | 5 to 40 |  |  |  |
| O=c1c(Nc2ccccc2)cn(C2C=CC(O)C2)c(=O)n1Cc1ccccc1 (stereo not drawn) [Compound 21, 1-(4’-Hydroxy-2’-cyclopenten-1’-yl)-3-benzyl-5-(phenylamino) uracil] |  |  | > 100 |  |
| O=c1[nH]c(=O)n(C2C=CC(O)C2)cc1Nc1ccc(Oc2ccccc2)cc1 (stereo not drawn) [Compound 15] |  |  | 119 |  |
